Data as given in paper PMC3119665, “A New Drug Design Targeting the Adenosinergic System for Huntington's Disease” (PLoS ONE, 2011).

Experiments:
Assay in all cases: Radioligand binding panel (Table S1)
Settings in all cases: 10 μM T1-11, n 2
[1] = test system: Glutamate, Kainate; parameters: species or system rat
[2] = target: T1, Cannabinoid CB2 (Homo sapiens, UniProt P34972)
T1 construct: purchased MDS Pharma Services Taiwan

[3] = target: T2, N-Formyl Peptide Receptor, FPR1 (Homo sapiens, UniProt P21462)
T2 construct: purchased MDS Pharma Services Taiwan
T2 sequence (P21462 whole entry): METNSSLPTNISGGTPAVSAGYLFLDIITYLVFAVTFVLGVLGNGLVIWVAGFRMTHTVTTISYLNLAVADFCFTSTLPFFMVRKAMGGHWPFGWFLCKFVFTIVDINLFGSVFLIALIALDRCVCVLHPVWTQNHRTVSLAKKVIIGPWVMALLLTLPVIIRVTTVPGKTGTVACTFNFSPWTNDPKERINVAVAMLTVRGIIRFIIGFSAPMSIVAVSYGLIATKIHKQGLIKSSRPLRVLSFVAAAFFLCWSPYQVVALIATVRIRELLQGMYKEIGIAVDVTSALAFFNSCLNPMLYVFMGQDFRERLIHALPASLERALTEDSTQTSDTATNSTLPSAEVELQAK

[4] = target: T3, Erythropoietin EPOR (Homo sapiens, UniProt P19235)
T3 construct: purchased MDS Pharma Services Taiwan
T3 sequence (P19235 25-508): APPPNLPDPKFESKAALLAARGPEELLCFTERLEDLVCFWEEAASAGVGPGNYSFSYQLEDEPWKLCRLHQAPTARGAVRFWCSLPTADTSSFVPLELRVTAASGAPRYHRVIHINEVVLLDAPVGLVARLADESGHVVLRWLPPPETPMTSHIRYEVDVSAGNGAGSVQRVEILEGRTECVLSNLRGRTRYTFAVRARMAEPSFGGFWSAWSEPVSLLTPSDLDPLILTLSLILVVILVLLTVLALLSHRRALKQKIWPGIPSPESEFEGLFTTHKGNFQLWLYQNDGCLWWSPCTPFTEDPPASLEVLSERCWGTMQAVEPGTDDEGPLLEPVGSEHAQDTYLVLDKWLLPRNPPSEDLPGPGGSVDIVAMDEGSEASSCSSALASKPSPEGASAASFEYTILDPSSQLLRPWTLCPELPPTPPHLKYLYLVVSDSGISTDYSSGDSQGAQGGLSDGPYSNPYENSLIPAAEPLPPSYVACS

[5] = target: T4, Opiate κ (OP2, KOP) (Homo sapiens, UniProt P41145)
T4 construct: purchased MDS Pharma Services Taiwan
T4 sequence (P41145 whole entry): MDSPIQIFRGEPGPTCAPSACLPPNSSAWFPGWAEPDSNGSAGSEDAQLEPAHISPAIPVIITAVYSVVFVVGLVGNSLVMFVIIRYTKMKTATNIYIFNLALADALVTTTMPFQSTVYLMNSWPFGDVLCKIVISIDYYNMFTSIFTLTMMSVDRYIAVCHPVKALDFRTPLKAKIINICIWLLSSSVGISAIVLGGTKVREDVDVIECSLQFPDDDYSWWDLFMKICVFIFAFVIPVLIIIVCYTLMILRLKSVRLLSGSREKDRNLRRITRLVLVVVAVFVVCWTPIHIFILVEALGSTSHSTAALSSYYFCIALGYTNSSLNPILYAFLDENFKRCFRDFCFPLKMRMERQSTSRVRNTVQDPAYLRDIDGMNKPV

[6] = test system: Transporter, Glycin.e; parameters: species or system rat
[7] = target: T5, Interleukin IL-6 (Homo sapiens, UniProt P08887)
T5 construct: purchased MDS Pharma Services Taiwan
T5 sequence (P08887 20-468): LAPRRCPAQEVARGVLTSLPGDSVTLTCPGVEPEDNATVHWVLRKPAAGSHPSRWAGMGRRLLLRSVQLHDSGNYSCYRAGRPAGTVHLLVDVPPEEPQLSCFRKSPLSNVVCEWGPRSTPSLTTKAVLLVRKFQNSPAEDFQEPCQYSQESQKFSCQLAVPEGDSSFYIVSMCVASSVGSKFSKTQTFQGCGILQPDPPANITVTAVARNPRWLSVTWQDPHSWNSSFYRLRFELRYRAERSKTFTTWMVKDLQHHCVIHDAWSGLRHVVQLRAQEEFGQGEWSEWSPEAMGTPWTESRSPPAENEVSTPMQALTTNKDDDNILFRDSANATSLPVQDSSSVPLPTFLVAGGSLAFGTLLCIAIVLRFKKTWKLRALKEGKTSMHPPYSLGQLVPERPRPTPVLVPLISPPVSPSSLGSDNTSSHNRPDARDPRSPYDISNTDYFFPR

[8] = test system: Adrenergic β, Non-Selective; parameters: species or system rat
[9] = target: T6, Tachykinin NK1 (Homo sapiens, UniProt P25103)
T6 construct: purchased MDS Pharma Services Taiwan
T6 sequence (P25103 whole entry): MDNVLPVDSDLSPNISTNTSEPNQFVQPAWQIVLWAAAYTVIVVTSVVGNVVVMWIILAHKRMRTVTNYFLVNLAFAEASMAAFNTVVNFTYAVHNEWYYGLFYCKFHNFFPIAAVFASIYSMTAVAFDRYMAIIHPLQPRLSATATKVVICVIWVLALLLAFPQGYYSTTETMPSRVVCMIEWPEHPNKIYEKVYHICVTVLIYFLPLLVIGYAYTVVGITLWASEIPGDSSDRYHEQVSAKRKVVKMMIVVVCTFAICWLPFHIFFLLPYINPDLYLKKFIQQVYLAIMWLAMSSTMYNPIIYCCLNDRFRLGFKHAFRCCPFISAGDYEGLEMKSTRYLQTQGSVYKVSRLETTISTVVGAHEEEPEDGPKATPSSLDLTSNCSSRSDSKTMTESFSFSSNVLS

[10] = target: T7, Adrenergic α 1D (Homo sapiens, UniProt P25100)
T7 construct: purchased MDS Pharma Services Taiwan
T7 sequence (P25100 whole entry): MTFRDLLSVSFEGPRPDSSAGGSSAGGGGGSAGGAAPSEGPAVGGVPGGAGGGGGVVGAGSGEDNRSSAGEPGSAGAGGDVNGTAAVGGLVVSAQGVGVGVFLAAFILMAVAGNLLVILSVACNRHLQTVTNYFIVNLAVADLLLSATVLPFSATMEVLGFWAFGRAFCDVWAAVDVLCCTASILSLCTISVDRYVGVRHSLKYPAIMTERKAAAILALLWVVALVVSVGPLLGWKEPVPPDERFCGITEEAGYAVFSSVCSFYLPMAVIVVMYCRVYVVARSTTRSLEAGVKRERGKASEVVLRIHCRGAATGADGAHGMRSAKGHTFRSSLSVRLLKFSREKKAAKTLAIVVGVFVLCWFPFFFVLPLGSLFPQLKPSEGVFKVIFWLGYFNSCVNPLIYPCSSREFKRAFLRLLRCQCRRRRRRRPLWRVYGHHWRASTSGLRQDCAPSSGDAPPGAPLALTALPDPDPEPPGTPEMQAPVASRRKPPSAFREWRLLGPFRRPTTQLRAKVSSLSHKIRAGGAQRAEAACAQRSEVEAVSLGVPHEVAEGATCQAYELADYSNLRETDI

T1 sequence (P34972 whole entry): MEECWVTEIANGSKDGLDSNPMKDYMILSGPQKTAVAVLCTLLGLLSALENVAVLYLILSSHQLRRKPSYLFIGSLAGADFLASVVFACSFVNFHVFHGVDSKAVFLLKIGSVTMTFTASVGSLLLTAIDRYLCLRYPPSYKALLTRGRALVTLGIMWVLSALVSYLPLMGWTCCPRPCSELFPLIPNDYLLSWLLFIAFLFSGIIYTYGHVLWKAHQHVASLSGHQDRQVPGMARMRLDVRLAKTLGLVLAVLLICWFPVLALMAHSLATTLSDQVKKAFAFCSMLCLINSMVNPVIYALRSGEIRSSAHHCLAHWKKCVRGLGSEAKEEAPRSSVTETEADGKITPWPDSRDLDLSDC

`OC[C@H]1O[C@@H](n2cnc3c(NCc4ccc(O)cc4)ncnc32)[C@H](O)[C@@H]1O` [T1-11, N ^6-(4-hydroxybenzyl)adenine riboside] was tested, and the “% Inhibition” value [1] was 11%, the inhibition at 10 µM [2] was -2% and the inhibition at 10 µM [3] was 5%. For the same compound, the inhibition at 10 µM [4] was 3%, the inhibition at 10 µM [5] was 6% and the “% Inhibition” value [6] was 1%. The inhibition at 10 µM [7] was -3%, the “% Inhibition” value [8] was 10% and the inhibition at 10 µM [9] was 3%. For the same compound, the inhibition at 10 µM [10] was 8%.
